Source: patent US10875876B2, “Cyclized sulfamoylarylamide derivatives and the use thereof as medicaments for the treatment of hepatitis B” (priority 2015, dated 2020)
Where two headings read alike, the source gives them in different places.

Experiments:
HBV = assay: anti HBV activity, HepG2.117 cell line, intracellular HBV DNA by realtime PCR; assay type: cell-based; settings: HepG2.117 cell line (Tet-off), 3 days of treatment, intracellular HBV DNA quantified by realtime PCR, read-out: HBV-AVE-HepG2.117 EC50
Summary of the method: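 Readout was intracellular HBV DNA by real-time PCR (HBV-specific primers and probe) after 3 days of compound exposure. Serial dilutions were tested in duplicate on HepG2.117 cells, a stable inducible HBV producer in which replication is switched on when doxycycline is absent.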

[1] = Cytotoxicity in HepG2 cells, Resazurin assay; settings: human, HepG2 cells, TOX-HepG2-4 d CC50 (μM), HepG2 cells incubated for 4 days, viability by Resazurin assay
[2] = Hepatitis B virus, HepG2.117, 72 h

| Compound | EC50 (HBV; [2]) [nM] | melting point [°C] | CC50 at 4 days [1] [µM] | EC50 (HBV) [nM] |
| --- | --- | --- | --- | --- |
| Cn1cc2c(c1C(=O)Nc1ccc(F)c(F)c1)OC[C@@H](C(C)(C)F)NS2(=O)=O [Compound 121, (3S)—N-(3,4-difluorophenyl)-3-(1-fluoro-1-methyl-ethyl)-7-methyl-1,1-dioxo-3,4-dihydro-2H-pyrrolo[3,4-b][1,4,5]oxathiazepine-6-carboxamide] | 29 | 239.8 | > 25 | – |
| Cn1cc2c(c1C(=O)Nc1ccc(F)c(F)c1)OCC(C)(Cc1ccnc(Cl)c1)NS2(=O)=O (stereo not shown) [Compound 190, 3-[(2-chloro-4-pyridyl)methyl]-N-(3,4-difluorophenyl)-3,7-dimethyl-1,1-dioxo-2,4-dihydropyrrolo[3,4-b][1,4,5]oxathiazepine-6-carboxamide] | 6 | 225 | > 25 | – |
| Cn1cc2c(c1C(=O)Nc1ccc(F)c(C#N)c1)OC[C@H](C(O)C1CC1)NS2(=O)=O (stereo partly shown) | – | 233.9 | – | – |
| Cn1cc2c(c1C(=O)Nc1ccc(F)c(C(F)F)c1)OC[C@@H](C(C)(C)O)NS2(=O)=O [Compound 101, (3S)—N-[3-(difluoromethyl)-4-fluoro-phenyl]-3-(1-hydroxy-1-methyl-ethyl)-7-methyl-1,1-dioxo-3,4-dihydro-2H-pyrrolo[3,4-b][1,4,5]oxathiazepine-6-carboxamide] | 14 | 214.4 | > 25 | – |
| Cc1cccc(CC2(C)COc3c(cn(C)c3C(=O)Nc3ccc(F)c(F)c3)S(=O)(=O)N2)n1 (racemic) [Compound 172, N-(3,4-difluorophenyl)-3,7-dimethyl-3-[(6-methyl-2-pyridyl)methyl]-1,1-dioxo-2,4-dihydropyrrolo[3,4-b][1,4,5]oxathiazepine-6-carboxamide] | 74 | 206 | > 25 | – |
| Cc1cc(NC(=O)c2c3c(cn2C)S(=O)(=O)N[C@@H](C(O)C2CC2)CO3)ccc1F (stereo in doubt) | – | 234.7 | – | – |
| Cn1cc2c(c1C(=O)Nc1ccc(F)c(F)c1)OCC(C)(c1ccccc1)NS2(=O)=O (stereo not shown) [Compound 125, N-(3,4-difluorophenyl)-3,7-dimethyl-1,1-dioxo-3-phenyl-2,4-dihydropyrrolo[3,4-b][1,4,5]oxathiazepine-6-carboxamide] | 7 | 256.6 | > 25 | – |
| Cc1cc(NC(=O)c2c3c(cn2C)S(=O)(=O)N[C@@H]([C@H](C)O)CC3)ccc1F [Compound 112, (3R)—N-(4-fluoro-3-methyl-phenyl)-3-[(1S)-1-hydroxyethyl]-7-methyl-1,1-dioxo-2,3,4,5-tetrahydropyrrolo[3,4-f]thiazepine-6-carboxamide] | 3 | 287.3 | > 25 | – |
| Cn1cc2c(c1C(=O)Nc1ccc(F)c(C(F)F)c1F)OC[C@H](C(C)(C)O)NS2(=O)=O [Compound 182, (3R)—N-[3-(difluoromethyl)-2,4-difluoro-phenyl]-3-(1-hydroxy-1-methyl-ethyl)-7-methyl-1,1-dioxo-3,4-dihydro-2H-pyrrolo[3,4-b][1,4,5]oxathiazepine-6-carboxamide] | 10 | 182.1 | > 25 | – |
| CC(N)[C@H]1CCc2c(cn(C)c2C(=O)Nc2cc(F)c(F)c(F)c2)S(=O)(=O)N1 (stereo in doubt) | – | 281.2 | – | – |
| Cc1cccc(C2(C)COc3c(cn(C)c3C(=O)Nc3ccc(F)c(F)c3)S(=O)(=O)N2)n1 (single isomer, unassigned) [Compound 168a, N-(3,4-difluorophenyl)-3,7-dimethyl-3-(6-methyl-2-pyridyl)-1,1-dioxo-2,4-dihydropyrrolo[3,4-b][1,4,5]oxathiazepine-6-carboxamide] | – | 221.9 | > 25 | > 125 |
| Cn1cc2c(c1C(=O)Nc1ccc(F)c(C(F)F)c1)OC[C@](C)(c1ccccn1)NS2(=O)=O [Compound 169, (3S)—N-[3-(difluoromethyl)-4-fluoro-phenyl]-3,7-dimethyl-1,1-dioxo-3-(2-pyridyl)-2,4-dihydropyrrolo[3,4-b][1,4,5]oxathiazepine-6-carboxamide] | 17 | 208.8 | > 25 | – |
| CCC(O)[C@H]1COc2c(cn(C)c2C(=O)Nc2ccc(F)c(F)c2)S(=O)(=O)N1 (stereo partly shown) | – | 214.6 | – | – |
| Cc1cccc(C2(C)COc3c(cn(C)c3C(=O)Nc3ccc(F)c(C(F)F)c3)S(=O)(=O)N2)n1 (racemic) [Compound 177, N-[3-(difluoromethyl)-4-fluoro-phenyl]-3,7-dimethyl-3-(6-methyl-2-pyridyl)-1,1-dioxo-2,4-dihydropyrrolo[3,4-b][1,4,5]oxathiazepine-6-carboxamide] | 8 | 210.2 | > 25 | – |
| C[C@H]1CCc2c(cn(C)c2C(=O)Nc2ccc(F)c(C#N)c2F)S(=O)(=O)N1 [Compound 157, (3S)—N-(3-cyano-2,4-difluoro-phenyl)-3,7-dimethyl-1,1-dioxo-2,3,4,5-tetrahydropyrrolo[3,4-f]thiazepine-6-carboxamide] | 17 | 247.5 | > 25 | – |
| Cn1ccnc1CC1(C)COc2c(cn(C)c2C(=O)Nc2ccc(F)c(C(F)F)c2)S(=O)(=O)N1 (stereo not shown) [Compound 187, N-[3-(difluoromethyl)-4-fluoro-phenyl]-3,7-dimethyl-3-[(1-methylimidazol-2-yl)methyl]-1,1-dioxo-2,4-dihydropyrrolo[3,4-b][1,4,5]oxathiazepine-6-carboxamide] | 3 | 282.8 | > 25 | – |
| CC(C)C(O)C1COc2c(cn(C)c2C(=O)Nc2ccc(F)c(C#N)c2)S(=O)(=O)N1 (racemic) | – | 213.7 | – | – |
| Cn1ccc(C2(C)COc3c(cn(C)c3C(=O)Nc3ccc(F)c(F)c3)S(=O)(=O)N2)n1 (single isomer, unassigned) [Compound 192a, N-(3,4-difluorophenyl)-3,7-dimethyl-3-(1-methylpyrazol-3-yl)-1,1-dioxo-2,4-dihydropyrrolo[3,4-b][1,4,5]oxathiazepine-6-carboxamide] | 36 | 208.7 | > 25 | – |

| Compound | EC50 (HBV; [2]) [nM] | melting point [°C] | CC50 at 4 days [1] [µM] | EC50 (HBV) [nM] |
| --- | --- | --- | --- | --- |
| C[C@H](O)[C@H]1CCc2c(cn(C)c2C(=O)Nc2ccc(F)c(C(F)F)c2)S(=O)(=O)N1 [Compound 103, (3R)—N-[3-(difluoromethyl)-4-fluoro-phenyl]-3-[(1S)-1-hydroxyethyl]-7-methyl-1,1-dioxo-2,3,4,5-tetrahydropyrrolo[3,4-f]thiazepine-6-carboxamide] | 6 | 274.7 | > 25 | – |
| Cn1cc2c(c1C(=O)Nc1ccc(F)c(C#N)c1)OC[C@](C)(c1ccccn1)NS2(=O)=O [Compound 128, (3S)—N-(3-cyano-4-fluoro-phenyl)-3,7-dimethyl-1,1-dioxo-3-(2-pyridyl)-2,4-dihydropyrrolo[3,4-b][1,4,5]oxathiazepine-6-carboxamide] | 24 | 235 | > 25 | – |
| CC(C)C(O)C1COc2c(cn(C)c2C(=O)Nc2ccc(F)c(F)c2)S(=O)(=O)N1 (racemic) | – | 247.3 | – | – |
| CC1CCc2c(cn(C)c2C(=O)Nc2ccc(F)c(F)c2)S(=O)(=O)N1 (stereo not shown) | – | 229.8 | – | – |
| CC1C=Cc2c(csc2C(=O)Nc2ccc(F)c(F)c2)S(=O)(=O)N1 (stereo not shown) | – | 220.8 | – | – |
| Cc1sc2c(c1C(=O)Nc1ccc(F)c(F)c1)OCC(C)NS2(=O)=O (stereo not shown) | – | 221.5 | – | – |
| Cn1cc2c(c1C(=O)Nc1ccc(F)c(F)c1)OC[C@H](C(O)C1CC1)NS2(=O)=O (stereo partly shown) | – | 244.8 | – | – |
| CCC(O)[C@@H]1COc2c(cn(C)c2C(=O)Nc2ccc(F)c(C(F)F)c2)S(=O)(=O)N1 (stereo in doubt) | – | 224.6 | – | – |
| CC(NCC(F)(F)F)C1CCc2c(cn(C)c2C(=O)Nc2cc(F)c(F)c(F)c2)S(=O)(=O)N1 (stereo not shown) | – | 216.2 | – | – |
| Cn1cc2c(c1C(=O)Nc1ccc(F)c(C(F)F)c1)OC[C@H](C(O)C1CC1)NS2(=O)=O (stereo partly shown) | – | 240.7 | – | – |
| Cn1cc2c(c1C(=O)Nc1ccc(F)c(Cl)c1)OC[C@H](C(O)C1CC1)NS2(=O)=O (stereo in doubt) | – | 215.8 | – | – |
| CCC(O)[C@@H]1COc2c(cn(C)c2C(=O)Nc2ccc(F)c(F)c2)S(=O)(=O)N1 (stereo in doubt) | – | 212.6 | – | – |
| CCC(O)[C@H]1COc2c(cn(C)c2C(=O)Nc2ccc(F)c(C(F)F)c2)S(=O)(=O)N1 (stereo partly shown) | – | 224.5 | – | – |
| CCC(O)[C@H]1COc2c(cn(C)c2C(=O)Nc2ccc(F)c(C#N)c2)S(=O)(=O)N1 (stereo partly shown) | – | 252.2 | – | – |
| C[C@H]1CCc2c(cn(C)c2C(=O)Nc2ccnc(Cl)c2)S(=O)(=O)N1 [Compound 166, (3S)—N-(2-chloro-4-pyridyl)-3,7-dimethyl-1,1-dioxo-2,3,4,5-tetrahydropyrrolo[3,4-f]thiazepine-6-carboxamide] | 56 | – | > 25 | – |
| Cn1cc2c(c1C(=O)Nc1ccc(F)c(F)c1)CCC(C(F)(F)F)NS2(=O)=O (stereo not shown) [Compound 47, N-(3,4-difluorophenyl)-7-methyl-1,1-dioxo-3-(trifluoromethyl)-2,3,4,5-tetrahydropyrrolo[3,4-f]thiazepine-6-carboxamide] | 17 | – | > 25 | – |
| Cn1cc2c(c1C(=O)Nc1ccc(F)c(C#N)c1)OCC(C)(C)NS2(=O)=O [Compound 135, N-(3-cyano-4-fluoro-phenyl)-3,3,7-trimethyl-1,1-dioxo-2,4-dihydropyrrolo[3,4-b][1,4,5]oxathiazepine-6-carboxamide] | 5 | – | > 25 | – |
| CC(C)[C@H]1Oc2c(cn(C)c2C(=O)Nc2ccc(F)c(C#N)c2)S(=O)(=O)N[C@@H]1CO [compound 239] | > 500 | – | > 25 | – |
